Counter-ions that a name gives are not always drawn. Like-named read-outs stand apart in the source and are kept apart here.
Legend:
[1] = system: MECP2 mutant mice; assay: Trait amelioration / symptom rescue in Mecp2 mutant mice; assay type: in vivo, mouse; conditions: for rescue of motor traits and longevity: male mice, drugs sub-cutaneously
[2] = system: 129.Mecp2^tm1.1Bird/Y mice; assay: Accelerating rotarod task, Mecp2 null males; assay type: in vivo, mouse
[3] = system: 129.Mecp2^tm1.1Bird/Y mice; assay: Open field locomotor activity, Mecp2 null males; assay type: in vivo, mouse
[4] = system: Mecp2^tm1.1Bird/Y mice; assay: Peripheral fat measures of treated Mecp2 null males; assay type: in vivo, mouse; conditions: Example 6/FIG. 9; 25 mg/kg Sub-Q 2x per week
Procedure: The preparation of the agents used in this Example was as follows: metformin hydrochloride, was dissolved in saline (Sigma). The day of injection, the metformin was diluted to 18 parts stock solution, 1 part DMSO, and 1 part ethanol, such that the desired dose for a 20 g mouse was given in 100 ul. […] The animals were treated starting at 5 weeks of age until the age of 10 weeks, or for a period of 5 weeks. Body weights were obtained weekly starting at 5 weeks of age prior to treatment, and ending at 10 weeks, at the end of study. Shown in the FIG. 9 are the weights after 3 weeks of treatment (at 8 weeks of age, panel A) and after 5 weeks of treatment (10 weeks of age, panel D).

[5] = system: 129.Mecp2^tm1.1Bird/Y mice; assay: Survival (longevity) of treated Mecp2 null male mice; assay type: in vivo, mouse; conditions: 129.Mecp2^tm1.1Bird/Y males, fluvastatin 3 mg/kg s.c.
[6] = in vivo; cited from earlier work
[7] = cited from earlier work
[8] = cited from earlier work; remark: listed apart in the source
[9] = cited from earlier work; remark: listed apart in the source
[10] = system: cytochrome p450 enzymes; conditions: cited from earlier work
[11] = system: 129.Mecp2^tm1.1Bird/Y mice; assay: Liver lipid measurement, Mecp2 null males; assay type: in vivo, mouse; conditions: P70; fluvastatin p=0.02; lovastatin p=0.386
[12] = system: 129.Mecp2^tm1.1Bird/Y mice; assay: Serum/plasma cholesterol, Mecp2 null males; assay type: in vivo, mouse; conditions: by P70; fluvastatin p=0.001, lovastatin p=0.001
[13] = Example 6/FIG. 9, 25 mg/kg Sub-Q (3 mg/kg elsewhere in the source) 2x per week, vs vehicle

With Cl.F/C(COc1ccc2c(c1)[nH]c1ccccc12)=C1/CN2CCC1CC2 [(E)-2-[2-fluoro-2-(quinuclidin-3-ylidene)ethoxy]-9H-carbazole monohydrochloride] the improvement of symptoms ([1]; Mecp2 mice, drugs targeting squalene synthase or squalene epoxidase) was “did not significantly improve symptoms”.

In the case of O=S(=O)(c1ccccc1)N(CC(F)(F)F)c1ccc(C(O)(C(F)(F)F)C(F)(F)F)cc1 [T090317], the “motor performance, rotarod” value [2, 13] is reported as “improved motor performance”, the “motor performance, open field activity” value [3, 13] is reported as “improved motor performance” and the peripheral fat measures [4] is reported as “did not appear to improve”.

For CC(C)c1c(C(=O)Nc2ccccc2)c(-c2ccccc2)c(-c2ccc(F)cc2)n1CC[C@@H](O)C[C@@H](O)CC(=O)O [atorvastatin], the “rescue of motor traits and longevity” value [1] was “varying degrees of rescue”.

In the case of CC(C)n1c(/C=C/C(O)CC(O)CC(=O)O)c(-c2ccc(F)cc2)c2ccccc21 (stereo not shown) [fluvastatin], the “survival beyond 120 days” value [5] is given as 57%, the median longevity ([5]; compared to 87 days, p<0.0001) is given as 122 days and the half-life [6] is given as “approximately 96 hours”. The “Lipophilicity (LogD):” value [7] was 1.00-1.25, the “LD50 (oral):” value ([8]; mouse, in vivo, po) was greater than 2000 mg/kg and the solubility in water [9] was “soluble in water”. The “Metabolized by:” value [10] was “Cyp2C9”.

In the case of CC[C@H](C)C(=O)O[C@H]1C[C@@H](C)C=C2C=C[C@H](C)[C@H](CC[C@@H]3C[C@@H](O)CC(=O)O3)[C@H]21 [lovastatin], the “rescue of motor traits and longevity” value [1] is listed as “best rescue”, the “Lipophilicity (LogD):” value [7] is listed as 1.75-1.50 and the “LD50 (oral):” value ([8]; (mouse)) is listed as greater than 1000 mg/kg. For the same compound, the Rotarod performance ([2]; P56 treated null males vs vehicle, fluvastatin 3 mg/kg s.c. p=0.015, lovastatin […] s.c. p=0.009) was “improves”, the “Open field activity (beam breaks)” value ([3]; P70 treated null males vs vehicle, fluvastatin p=0.026, lovastatin p=0.011) was “increased” and the “elevated lipid concentration in livers” value [11] was “ameliorates”. For the same compound, the plasma cholesterol [12] was “lowers” and the “Metabolized by:” value [10] was “Cyp3A4”.

In the case of CN(C)C(=N)N=C(N)N [metformin, metformin hydrochloride], the “effect on Mecp2^tm1.1Bird/Y mice (FIG. 9 measures)” value ([1]; Example 6, 30 mg/kg IP 2x per week, 5 to 10 weeks of age, vs vehicle) is reported as “little effect”.

In the case of CCC(C)(C)C(=O)O[C@H]1C[C@@H](C)C=C2C=C[C@H](C)[C@H](CC[C@@H]3C[C@@H](O)CC(=O)O3)[C@H]21 [simvastatin], the half-life [6] is given as 2 to 3 h.

Reference: US20160193231A1, “RETT SYNDROME AND TREATMENTS THEREFORE” (RETT SYNDROME RESEARCH TRUST, priority 2013, published 2016)
